The source of these data is ChEMBL document CHEMBL3217721 (Medchemcomm, 2012).

The source made the active and inactive calls. No cut-off for these calls is given here.

One experiment addresses Tubulin (Bos taurus, UniProt Q6B856+Q862L2+Q862F3). Briefly: Inhibition of bovine brain tubulin polymerization after 20 mins by spectrophotometric analysis.
The subject of the next experiment is SK-OV-3. The experiment can be described thus: Growth inhibition of human SKOV3 cells by sulforhodamine B assay. The class given is functional. A general note: Sulforhodamine B stains cellular protein and so reports cell mass.
In the next experiment the test system is DU-145. Briefly: Growth inhibition of human DU145 cells by sulforhodamine B assay. Format: functional.
The test system of experiment [1] is HUVEC. Briefly: Vascular disrupting activity in HUVEC assessed as disruption of capillary-like network of tubules after 2 hrs by matrigel assay. Particulars: Homo sapiens. Format: functional, cell-based.
For experiment [2], the target named is T1, Tubulin (Homo sapiens) (UniProt P68371+Q9H4B7+P0DPH7+P68366+Q13509+Q71U36+P04350+Q3ZCM7+P07437+P68363+Q9BQE3+Q6PEY2+Q13885+Q9BVA1+Q9BUF5). The experiment can be described thus: Displacement of [3H]-Colchicine from tubulin (unknown origin) at 5 uM relative to control. Format: protein-complex assay. For orientation: Displacement assays read how much labelled ligand stays bound in the presence of the test substance.

Experiment [3] concerns the target T1, Tubulin (Homo sapiens). Briefly: Displacement of [3H]-Colchicine from tubulin (unknown origin) at 1 uM relative to control. Format: protein-complex assay.
For experiment [4], the system named is HUVEC. The experiment can be described thus: Vascular disrupting activity in HUVEC assessed as cell rounding at 0.1 to 1 uM after 2 hrs by matrigel assay. Format: functional, cell-based. The note with it: Homo sapiens.
For another experiment, the system named is NCI-H460. Briefly: Growth inhibition of human NCI-H460 cells by sulforhodamine B assay. Format: functional.
In experiment [5] the test system is HUVEC. The experiment can be described thus: Vascular disrupting activity in HUVEC assessed as disruption of capillary-like network of tubules at 1 uM after 2 hrs by matrigel assay. Format: functional, cell-based. The note with it: Homo sapiens.
The subject of experiment [6] is HUVEC. Briefly: Vascular disrupting activity in HUVEC assessed as disruption of capillary-like network of tubules at 0.01 to 0.1 uM after 2 hrs by matrigel assay. The class given is functional, cell-based. Particulars: Homo sapiens.
The test system of experiment [7] is HUVEC. The experiment can be described thus: Vascular disrupting activity in HUVEC assessed as cell rounding at 1 uM after 2 hrs by matrigel assay. Format: functional, cell-based. The note with it: Homo sapiens.
The test system of experiment [8] is HUVEC. The experiment can be described thus: Vascular disrupting activity in HUVEC assessed as disruption of capillary-like network of tubules at 0.01 to 1 uM after 2 hrs by matrigel assay. The note with it: Homo sapiens. Format: functional, cell-based.

For the molecule `COc1ccc2c(c1N)CCCC=C2c1cc(OC)c(OC)c(OC)c1` [listing 1 of 3 here], the IC50 (as a rule, the point on the concentration scale where inhibition reaches its midpoint) at Tubulin turned out to be 1200 nM. In addition, the GI50 (as a rule, the concentration giving 50% growth inhibition) in the experiment with SK-OV-3 was 0.0329 nM; in the experiment on DU-145, 1.11 nM.

With `COc1ccc2c(c1N)CCCC=C2c1cc(OC)c(OC)c(OC)c1` [listing 2 of 3 here], in the experiment with HUVEC [1], the Activity result was “Dose-dependent effect”. The inhibition (commonly how much of the control response was suppressed) on Tubulin (Homo sapiens) [2] came to 91%; on Tubulin (Homo sapiens) [3], 65%. In addition, the result in the experiment on HUVEC [4] was Active.

In the case of `COc1ccc(/C=C\c2cc(OC)c(OC)c(OC)c2)c(O)c1O` [COMBRETASTATIN A-1], the GI50 in the experiment with NCI-H460 amounted to 15 nM; in the experiment on SK-OV-3 it was 38 nM; in the experiment with DU-145 (Homo sapiens, DU-145), 33 nM.

Take `COc1cc(C2=CCCCc3c2ccc(OC)c3[N+](=O)[O-])cc(OC)c1OC`: the result in the experiment on HUVEC [5] and in the experiment with HUVEC [7] was Active. The concentration for 50% growth inhibition (GI50) in the experiment on NCI-H460 is 216 nM; with SK-OV-3, 152 nM; in the experiment with DU-145 (Homo sapiens, DU-145), 211 nM. Further, the IC50 against Tubulin was 2500 nM. Also, in the experiment on HUVEC [6], the outcome was inactive. Besides, the inhibition on Tubulin (Homo sapiens) [2] stood at 63%.

In the experiment on DU-145, `COc1ccc2c(c1N)CCCC=C2c1cc(OC)c(OC)c(OC)c1` [listing 3 of 3 here] came in with a GI50 of 3.53 nM. This lies in the single-digit nanomolar range.

On to `COc1ccc(/C=C\c2cc(OC)c(OC)c(OC)c2)cc1O` [COMBRETASTATIN A4], for which the 50% growth inhibitory concentration (GI50) with NCI-H460 worked out at 2.8 nM; in the experiment with SK-OV-3, 0.42 nM; in the experiment on DU-145 (Homo sapiens, DU-145), 0.54 nM. Besides, the result with HUVEC [8] was Active.
